Test results reported in patent US6632809B2, “Gyrase inhibitors and uses thereof” (Vertex Pharmaceuticals Incorporated, priority 2000, dated 2003).
In brackets after ≈: the same amount, converted by molar mass.

What was measured:
[1] = target: DNA gyrase (374 kDa Gyr A2B2 subunit from Staphylococcus aureus) (Staphylococcus aureus, UniProt P0A0K8); test: Gyrase ATPase Assay; format: biochemical; conditions: 10 μM concentration, ATPase assay at 30° C., 0.9 mM ATP, average of duplicate values; for inhibition at 10 µM: read-out: Gyrase Inhibitory Activity (percent inhibition)
Procedure: The ATP hydrolysis activity of DNA gyrase was measure by coupling the production of ADP through pyruvate kinase/lactate dehydrogenase to the oxidation of NADH. This method has been described previously (Tamura and Gellert, 1990, J. Biol. Chem., 265, 21342).
ATPase assays are carried out at 30° C. in buffered solutions containing 100 mM TRIS pH 7.6, 1.5 mM MgCl2, 50 mM KCl. The coupling system contains (final concentrations) 2.5 mM phosphoenol pyruvate, 200 μM nicotinamide adenine dinucleotide (NADH), 1 mM DTT, […], and 10 ug/ml lactate dehydrogenase. 40 nanomolar enzyme (374 kDa Gyr A2B2 subunit from Staphylococcus aureus) and a DMSO solution of the inhibitor to a final concentration of 4% are added and the reaction mixture is allowed to incubate for 10 minutes at 30° C. The reaction is then started by the addition of ATP to a final concentration of 0.9 mM and the rate of NADH disappearance at 340 nanometers is measured over the course of 10 minutes. The percent inhibition values are determined from rate versus concentration profiles and are reported as the average of duplicate values.
The compound numbers correspond to the compound numbers in Table 1. Compounds having an activity designated as “A” provided a percent inhibition value below 50 percent; compounds having an activity designated as “B” provided a percent inhibition value between 50 and 75 percent; and compounds having an activity designated as “C” provided a percent inhibition value greater than 75 percent.

[2] = tested on: test bacteria; test: Susceptibility Testing in Liquid Media (MIC assay); format: cell-based; conditions: broth dilution, MHB, 35° C. overnight (16 to 20 hr); organism not given; read-out: MIC (minimal inhibitory concentration) activity level
Procedure: Susceptibility Testing in Liquid Media
Compounds of this invention were also tested for antimicrobial activity by susceptibility testing in liquid media. Such assays were performed within the guidelines of the latest NCCLS document governing such practices: “M7-A5 Methods for dilution Antimicrobial Susceptibility Tests for Bacteria that Grow Aerobically; Approved Standard—Fifth Edition (2000)”. Other publications such as “Antibiotics in Laboratory Medicine” (Edited by V. Lorian, Publishers Williams and Wilkins, 1996) provide essential practical techniques in laboratory antibiotic testing. Essentially, several discrete bacterial colonies (3 to 7) from a freshly streaked plate were transferred to an appropriate rich broth medium such as MHB, supplemented where appropriate for the more fastidious organisms. This was grown overnight to high density followed by a 1 or 2-thousand-fold dilution to give an inoculation density of between 5×10^5 and 5×10^6 CFU per mL. Alternatively, the freshly picked colonies can be incubated at 37° C. for about 4 to 8 hrs until the culture equals or exceeds a turbidity of a 0.5 McFarland standard (approximately 1.5×10^8 cells per mL) and diluted to give the same CFU per mL as above. In a more convenient method, the inoculum was prepared using a commercially available mechanical device (the BBL PROMPT System) that involves touching five colonies directly with a wand, containing crosshatch grooves at its bottom, followed by suspension of the bacteria in an appropriate volume of saline. Dilution to the appropriate inoculum cell density was made from this cell suspension. The broth used for testing consists of MHB supplemented with 50 mg per L of Ca^2+ and 25 mg per L of Mg^2+. Standard dilution panels of control antibiotics were made and stored as in the NCCLS standard M7-A5, the dilution range typically being in the 128 μg per mL to 0.015 μg per mL (by 2-fold serial dilution). The test compounds were dissolved and diluted fresh for experimentation on the same day; the same or similar ranges of concentration as above being used. The test compounds and controls were dispensed into a multiwell plate and test bacteria added such that the final inoculation was approximately 5×10^4 CFU per well and the final volume was 100 μL. The plates were incubated at 35° C. overnight (16 to 20 hr) and checked by eye for turbidity or quantitated with a multiwell plate reader. […] Such determinations were also compared to the appropriate tables contained in the above two publications to ensure that the range of antibacterial activity is within the acceptable range for this standardized assay.
The compound numbers correspond to the compound numbers in Table 1.

DNA gyrase (374 kDa Gyr A2B2 subunit from Staphylococcus aureus), sequence (P0A0K8 whole entry): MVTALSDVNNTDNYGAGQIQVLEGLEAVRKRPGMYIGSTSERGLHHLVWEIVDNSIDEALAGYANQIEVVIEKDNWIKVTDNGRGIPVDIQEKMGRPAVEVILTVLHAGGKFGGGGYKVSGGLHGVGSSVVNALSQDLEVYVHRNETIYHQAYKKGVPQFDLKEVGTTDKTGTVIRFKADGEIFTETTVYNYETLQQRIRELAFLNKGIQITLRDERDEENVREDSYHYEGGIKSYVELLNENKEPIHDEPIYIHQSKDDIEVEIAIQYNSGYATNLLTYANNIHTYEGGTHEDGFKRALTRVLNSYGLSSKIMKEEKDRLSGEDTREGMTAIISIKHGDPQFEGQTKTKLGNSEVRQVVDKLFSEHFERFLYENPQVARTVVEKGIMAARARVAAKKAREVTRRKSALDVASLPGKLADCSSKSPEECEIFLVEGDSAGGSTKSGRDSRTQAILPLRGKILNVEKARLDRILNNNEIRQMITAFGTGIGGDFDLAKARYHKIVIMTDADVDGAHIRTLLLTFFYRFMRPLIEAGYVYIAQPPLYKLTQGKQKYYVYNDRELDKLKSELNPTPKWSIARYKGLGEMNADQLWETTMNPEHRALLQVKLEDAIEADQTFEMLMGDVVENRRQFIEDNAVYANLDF
DNA gyrase (374 kDa Gyr A2B2 subunit from Staphylococcus aureus), sequence (P20831 whole entry, further chain): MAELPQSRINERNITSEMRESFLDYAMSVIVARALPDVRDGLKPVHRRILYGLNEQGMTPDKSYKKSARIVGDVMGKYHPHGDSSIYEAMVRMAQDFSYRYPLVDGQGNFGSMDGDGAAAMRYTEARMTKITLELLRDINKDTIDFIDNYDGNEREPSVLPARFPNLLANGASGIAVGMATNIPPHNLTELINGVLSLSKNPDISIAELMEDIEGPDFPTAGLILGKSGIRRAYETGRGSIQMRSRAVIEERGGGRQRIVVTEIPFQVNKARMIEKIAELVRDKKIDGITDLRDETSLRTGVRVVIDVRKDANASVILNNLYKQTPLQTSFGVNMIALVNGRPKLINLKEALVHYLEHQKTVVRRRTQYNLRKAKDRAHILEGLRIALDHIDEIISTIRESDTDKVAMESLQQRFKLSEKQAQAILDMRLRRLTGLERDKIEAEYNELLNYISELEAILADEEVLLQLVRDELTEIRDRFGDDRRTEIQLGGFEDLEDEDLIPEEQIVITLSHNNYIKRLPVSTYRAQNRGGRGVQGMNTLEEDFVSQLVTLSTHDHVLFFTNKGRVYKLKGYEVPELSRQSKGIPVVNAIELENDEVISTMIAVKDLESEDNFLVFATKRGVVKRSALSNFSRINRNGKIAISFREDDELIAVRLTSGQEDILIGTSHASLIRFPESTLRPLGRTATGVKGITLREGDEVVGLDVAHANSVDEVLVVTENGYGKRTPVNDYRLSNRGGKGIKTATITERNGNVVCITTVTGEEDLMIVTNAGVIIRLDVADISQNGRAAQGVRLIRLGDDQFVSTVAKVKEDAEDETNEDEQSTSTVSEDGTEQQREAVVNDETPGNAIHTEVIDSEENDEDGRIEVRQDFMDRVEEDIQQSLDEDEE

SMILES	inhibition at 10 µM [1] [%]	MIC [2] [mg/L]	Gyrase Inhibitory Activity (percent inhibition) [1]
CCNC(=O)Nc1nc2cc(-c3cccnc3)c(OC)cc2[nH]1 [Ia-42]	> 75	10 to 40 (≈ 32.1 to 128 µM)	–
CCNC(=O)Nc1nc2cc(-c3cccnc3)cc(C)c2[nH]1 [Ia-58]	> 75	< 10	–
CCNC(=S)Nc1nc2cc(-c3ccccc3)ccc2[nH]1 [Ia-90]	–	< 10	C (provided a percent inhibition value greater than 75 percent)
CCNC(=O)Nc1nc2cc(-c3cnc(SC)nc3)ccc2[nH]1 [Ia-92]	> 75	< 10	–
CCNC(=O)Nc1nc2cc(-c3cnc(NCc4cccnc4)nc3)ccc2[nH]1 [Ia-98]	> 75	10 to 40 (≈ 25.7 to 103 µM)	–
CCNC(=O)Nc1nc2cc(-c3cnc(OC)nc3)c(OC)cc2[nH]1 [Ia-112]	> 75	< 10	–
CSc1ncc(-c2ccc3[nH]c(NC(=O)NC(C)C)nc3c2)cn1 [Ia-116]	50 to 75	> 40	–
CSc1ncc(-c2ccc3[nH]c(NC(=O)NC4CCCC4)nc3c2)cn1 [Ia-117]	< 50	> 40	–
CCNC(=O)Nc1nc2cc(-c3cccnc3)ccc2[nH]1 [Ia-118]	> 75	< 10	–
CCCNC(=O)Nc1nc2cc(-c3cccnc3)ccc2[nH]1 [Ia-119]	> 75	> 40	–
CC(C)NC(=O)Nc1nc2cc(-c3cccnc3)ccc2[nH]1 [Ia-120]	50 to 75	> 40	–
O=C(Nc1nc2cc(-c3cccnc3)ccc2[nH]1)NC1CCCC1 [Ia-121]	< 50	> 40	–
CCOC(=O)Nc1nc2cc(-c3cncc(NC(C)=O)c3)ccc2[nH]1 [Ia-122]	> 75	> 40	–
CCNC(=O)Nc1nc2cc(-c3cccnc3)c(C)cc2[nH]1 [Ia-133]	> 75	< 10	–
CCNC(=O)Nc1nc2cc(-c3ccc(CN)cc3)ccc2[nH]1 [Ia-137]	> 75	> 40	–
CCNC(=O)Nc1nc2cc(-c3ccc(CNS(C)(=O)=O)cc3)ccc2[nH]1 [Ia-138]	> 75	> 40	–
CCNC(=O)Nc1nc2cc(-c3ccc(CNC(C)=O)cc3)ccc2[nH]1 [Ia-139]	> 75	> 40	–
CCNC(=O)Nc1nc2cc(-c3cnc(OC(C)COC)nc3)c(OC)cc2[nH]1 (stereo not shown) [Ia-140]	> 75	< 10	–
CCNC(=O)Nc1nc2cc(-c3cnc(NC(C)COC)nc3)cc(C)c2[nH]1 (stereo not shown) [Ia-141]	> 75	< 10	–
CCNC(=O)Nc1nc2cc(-c3cccnc3)c(C)c(C)c2[nH]1 [Ia-142]	> 75	< 10	–
CCNC(=O)Nc1nc2cc(-c3ccc(CN)nc3)ccc2[nH]1 [Ia-144]	> 75	10 to 40 (≈ 32.2 to 129 µM)	–
CCNC(=O)Nc1nc2cc(-c3ccc(CNC(C)=O)nc3)ccc2[nH]1 [Ia-145]	> 75	10 to 40 (≈ 28.4 to 114 µM)	–
CCNC(=O)Nc1nc2cc(-c3cnc(NC(C)COC)nc3)c(OC)cc2[nH]1 (stereo not shown) [Ia-146]	> 75	< 10	–
CCNC(=O)Nc1nc2cc(-c3cccnc3)c(OC)c(C)c2[nH]1 [Ia-147]	50 to 75	> 40	–
CCNC(=O)Nc1nc2cc(-c3ccc(CNC(=O)OC(C)(C)C)nc3)ccc2[nH]1 [Ia-148]	> 75	10 to 40 (≈ 24.4 to 97.4 µM)	–
CCNC(=O)Nc1nc2cc(-c3cccnc3)c(OCCOC)c(C)c2[nH]1 [Ia-149]	> 75	> 40	–
